Measured values published in patent US12697359B2, “Composition for preventing hair loss and promoting hair growth comprising postbiotic components from heat-treat Limosilactobacillus fermentum LM1020” (priority 2023, dated 2026).

System: dermal papilla cells
Experiment: Dermal papilla cell growth promotion effect of functional raw materials and heat-treated LM1020, alone or combined (Colby prediction)
Format: cell-based, human
Conditions: for effect on growth of dermal papilla cells / Effect of promoting growth of dermal papilla cell (%) Measured value: medium lacking growth factor; for Effect of promoting growth of dermal papilla cell (%) Measured value: raw material alone or LSD mixture, without LM1020
Description: The effect on the growth of dermal papilla cells was confirmed when the heat-treated Limosilactobacillus fermentum LM1020 was used together with L-menthol, salicylic acid, and dexpanthenol, which are active ingredients frequently used for functional cosmetics that help relieve hair loss symptoms. After the dermal papilla cells were seeded in a 96-well plate and cultured for 24 hours, the medium in the well was replaced with a medium lacking growth factor and further cultured for 24 hours. Then, the heat-treated Limosilactobacillus fermentum LM1020, L-menthol, salicylic acid, and dexpanthenol were used alone or mixed in a ratio of […] and used for treatment of dermal papilla cells prepared by the above-described method to determine the effect on the growth of the dermal papilla cells.
A growth rate of dermal papilla cells when cultured alone and growth rates of dermal papilla cells when treated alone or in a combination of L-menthol, salicylic acid, dexpanthenol, and the heat-treated Limosilactobacillus fermentum LM1020 were calculated. Then, the effects of the respective treatment materials on the promotion of growth of dermal papilla cells were calculated using the formula below and compared with each other. All the tests were repeated three times, and the average of each result was calculated and compared. • Dermal papilla cell growth promotion effect (%)=(B−A)÷A×100 • A=Growth rate of dermal papilla cells in non-treatment group • B=Growth rate of dermal papilla cells when treated with L-menthol, salicylic acid, dexpanthenol, and heat-treated Limosilactobacillus fermentum LM1020
Meanwhile, it was confirmed that when the heat-treated Limosilactobacillus fermentum LM1020 is used for treatment together with compounds of L-menthol, salicylic acid, and dexpanthenol, it is possible to overcome the effect of the compounds on the inhibition of growth of dermal papilla cells and promote the growth of dermal papilla cells. In order to thoroughly understand their synergistic effect, the effect to be predicted was calculated using the Colby formula, and a prediction value was compared with an experimental value (measurement value) to verify whether a synergistic effect exceeding the prediction value can be achieved.

Row | Structure (SMILES) | effect on promotion of growth of dermal papilla cells compared with heat-treated LM1020 (dexpanthenol alone vs LM1020 alone) | effect on growth of dermal papilla cells | Effect of promoting growth of dermal papilla cell (%) Measured value [%]
1 | CC(C)(CO)[C@@H](O)C(=O)NCCCO [dexpanthenol] | lower than that of the heat-treated Limosilactobacillus fermentum LM1020 at all concentrations | able to promote the growth of dermal papilla cells | 2.35 ± 1.61
2 | CC(C)[C@@H]1CC[C@@H](C)C[C@H]1O [L-menthol] |  | inhibit the growth of dermal papilla cells | −12.05 ± 3.31
3 | O=C(O)c1ccccc1O [salicylic acid] |  | inhibit the growth of dermal papilla cells | −0.39 ± 0.80
